What all share (test): inhibition of tumour cell growth, NCI panel, 48 h
Assay [1] concerns UACC-62 melanoma.
In assay [2] the test system is SNB-75 CNS.
Assay [3] deals with HCT-15 colon.
Assay [4] concerns DU-145 prostate.
Assay [5] relates to SNB-19 CNS.
Assay [6] relates to SF-295 CNS.
In assay [7] the test system is CAKI-1 renal.

SMILES strings stand for the structures.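 A five-concentration, 48-hour dose response in 96-well plates underlies each endpoint, interpolated linearly between surrounding concentrations. GI50 is the concentration that inhibits growth by half. At the TGI there is no net growth.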 Calls of active or inactive are those of the source. Cut-off read from the data, not from the text of the source: active = GI50 below about 0.43 µM; inactive = the rest.

The results in this text go back to PubChem BioAssay (NCI).

`CN(/N=C/c1ccc(Cl)cc1)C1=NCCCCN1`: the TGI in assay [1], in assay [2], in assay [3], in assay [4], in assay [5] and in assay [6] was more than 100 µM each time. Moreover, in assay [7], the TGI is more than 100 µM.
As to `S=C(N/N=C(\C(=N/NC(=S)N1CCCCC1)c1ccccn1)c1ccccn1)N1CCCCC1`, the TGI in assay [1], in assay [2], in assay [3], in assay [4], in assay [5] and in assay [6] was more than 100 µM each time. For the same compound, the TGI in assay [7] is more than 100 µM.
Turning to `CC(=O)c1[nH]c(Nc2ccc(C)cc2)c(C(=S)Nc2ccccc2)c1N`, the TGI in assay [1] was 31.7 µM; in assay [2] it was 50.3 µM; in assay [3], 46.1 µM; in assay [4], 34.2 µM; in assay [5], 42.9 µM; in assay [6] it was 39.7 µM. The compound also returned a TGI in assay [7] of 35.6 µM.
On to `OC(C1CCCCCCCCCC1)C(O)C1CCCCCCCCCC1` (configuration not stated), for which the TGI in assay [1], in assay [2], in assay [3], in assay [4], in assay [5] and in assay [6] was more than 100 µM throughout. In assay [7], this compound returned a TGI of more than 100 µM.
For the compound `O=C1O[C@H]2C3C4CCC(C4[C@@H]2I)[C@H]13` (some centres not stated), the TGI in assay [1], in assay [2], in assay [3], in assay [4], in assay [5] and in assay [6] was more than 100 µM throughout. Besides, in assay [7], the TGI was more than 100 µM.
`Cc1c2cccc-2c(OCCOC(=O)n2ccnc2)cc2c1[nH]c1ccccc12`: the TGI in assay [1] worked out at 6.63 µM; in assay [2] it was 3.02 µM; in assay [3], 5.95 µM; in assay [4], 22 µM; in assay [5] it was 5.97 µM; in assay [6], 10.9 µM. Besides, in assay [7], the TGI amounted to 17.8 µM.
On to `Cc1ccc(N=C2SC(=NN(C)C)SC2=Nc2ccc(C)cc2)cc1`, for which the TGI in assay [1], in assay [2], in assay [3], in assay [4], in assay [5] and in assay [6] was more than 100 µM in each case. The compound further gave a TGI in assay [7] of more than 100 µM.
With `Nc1ccccc1OCCCOc1ccccc1N`, the TGI in assay [1], in assay [2], in assay [3], in assay [4], in assay [5] and in assay [6] was more than 100 µM each time. The compound also had a TGI in assay [7] of more than 100 µM.
With `COc1ccc(Cn2c3ccc([N+](=O)[O-])cc3c(=O)n2Cc2ccccn2)cc1`, the TGI in assay [1], in assay [2], in assay [3], in assay [4], in assay [5] and in assay [6] was more than 100 µM throughout. Further, the TGI in assay [7] was more than 100 µM.
`CN(C)CC1CCCc2ccccc2C1=O` (configuration not stated): the TGI was 6.18 µM in assay [1]; 56.2 µM in assay [2]; 4.55 µM in assay [3]; 10.7 µM in assay [4]; 26.4 µM in assay [5]; 32.5 µM in assay [6]. Further, in assay [7], the TGI was determined as 6.25 µM.
In the case of `CC(C)C1=C(Cc2ccccc2)C(=O)O/C1=C\c1ccc(O)c(Cl)c1`, the TGI in assay [1] worked out at 28 µM; in assay [2] it was 30.6 µM; in assay [3] it was 29.6 µM; in assay [4], 32.4 µM; in assay [5], 33.7 µM; in assay [6], 29.5 µM. The compound further displayed a TGI in assay [7] of 32.9 µM.
For `CCn1c(=O)c2c3ccc(OC)cc3[nH]c2c2ccc(OC)cc21`, the TGI is more than 100 µM in assay [1]; 96.1 µM in assay [2]; more than 100 µM in assay [3]; more than 100 µM in assay [4]; more than 100 µM in assay [5]; more than 100 µM in assay [6]. The compound also displayed a TGI in assay [7] of more than 100 µM.
For `COc1cc(/C(=C2/O[C@@H]([C@H]3COC(C)(C)O3)[C@H]3OC(C)(C)O[C@@H]23)c2ccc3c(c2)OCO3)cc(OC)c1OC`, the GI50 in assay [1] is more than 25 µM; in assay [2] it was 7.13 µM; in assay [3], more than 25 µM; in assay [4] it was more than 25 µM; in assay [5], more than 25 µM; in assay [6], more than 25 µM. Also, the GI50 in assay [7] was more than 25 µM. In addition, the TGI in assay [1], in assay [2], in assay [3], in assay [4], in assay [5] and in assay [6] was more than 25 µM throughout. Moreover, in assay [7], the TGI was more than 25 µM.
In the case of `CCOC(=O)C(NC(=O)CC)(Nc1ccc(S(=O)(=O)Nc2ccc(OC)nn2)cc1)C(F)(F)F` (configuration not stated), the TGI in assay [1], in assay [2], in assay [3], in assay [4], in assay [5] and in assay [6] was more than 100 µM each time. For the same compound, the TGI in assay [7] is more than 100 µM.
For the compound `OC1(c2ccc(Cl)cc2)c2c(c3ccccc3c3ccccc23)C2=NCCN21` (configuration not stated), the TGI in assay [1] was 32 µM; in assay [2], 7.52 µM; in assay [3], more than 100 µM; in assay [4], 45.6 µM; in assay [5] it was 27.8 µM; in assay [6], 28.1 µM. Also, in assay [7], the TGI came to 68.8 µM.
With `CCCCOc1ccc2c(c1)CC[C@@H]1[C@@H]2CC[C@]2(C)C(=O)N(CCCC)C(=O)C[C@@H]12`, the TGI in assay [1], in assay [2], in assay [3], in assay [4], in assay [5] and in assay [6] was more than 100 µM each time. The TGI in assay [7] was more than 100 µM.
`O=C1c2cccnc2-c2nccc3c2c1nc1ccc(Br)cc13`: the TGI in assay [1] was 0.124 µM; in assay [2] it was 0.595 µM; in assay [3] it was 0.116 µM; in assay [4] it was 0.0577 µM; in assay [5] it was 0.295 µM; in assay [6], 0.114 µM. In assay [7], this compound displayed a TGI of 0.156 µM.
In the case of `O=c1c2cc(I)ccc2nc(SCc2nnco2)n1Cc1ccccc1`, the TGI in assay [1], in assay [2], in assay [3], in assay [4], in assay [5] and in assay [6] was more than 100 µM throughout. The same compound showed a TGI in assay [7] of more than 100 µM.
As to `CC1=CC(=O)/C(=C/n2c(=S)[nH]c3cc(C)ccc32)C(=O)O1`, the TGI in assay [1], in assay [2], in assay [3], in assay [4], in assay [5] and in assay [6] was more than 100 µM in each case. In assay [7], this compound yielded a TGI of more than 100 µM.
As for `O=S(c1ccc(Cl)cc1)c1ccccc1C1=NCCN1` (configuration not stated), the TGI in assay [1], in assay [2], in assay [3], in assay [4], in assay [5] and in assay [6] was more than 100 µM throughout. For the same compound, the TGI in assay [7] is more than 100 µM.
In the case of `O=P(O)(O)CN1CCNCCN(CP(=O)(O)O)CCN(CP(=O)(O)O)CCNCC1`, the result in assay [1], in assay [2], in assay [3], in assay [4], in assay [5] and in assay [6] was inactive. Besides, in assay [7], the TGI is 86100 µM.
Take `COc1cccc([C@@H]2CC(=O)c3cc4c(cc3N2)OCO4)c1`: the TGI in assay [1], in assay [2], in assay [3], in assay [4], in assay [5] and in assay [6] was more than 100 µM throughout. The compound further returned a TGI in assay [7] of more than 100 µM.
For `O=C1CCCCN1C(=O)c1ccc([N+](=O)[O-])cc1`, the TGI in assay [1], in assay [2], in assay [3], in assay [4], in assay [5] and in assay [6] was more than 100 µM throughout. In assay [7], the TGI was more than 100 µM.
In the case of `Cn1c(COC(=O)NC2CCCCC2)c(COC(=O)NC2CCCCC2)c2ccc3cc(C=O)ccc3c21`, the TGI in assay [1] is more than 100 µM; in assay [2] it was 60.8 µM; in assay [3] it was more than 100 µM; in assay [4], more than 100 µM; in assay [5], more than 100 µM; in assay [6], more than 100 µM. Besides, the TGI in assay [7] is more than 100 µM.
As to `CC1C(C#N)(C#N)C(C#N)=C(N)C1(C)[N+](=O)[O-]` (configuration not stated), the TGI in assay [1], in assay [2], in assay [3], in assay [4], in assay [5] and in assay [6] was more than 100 µM throughout. The same compound gave a TGI in assay [7] of more than 100 µM.
Regarding `CCN(CC)C1Oc2cc3c(cc2C(c2cccc(OC)c2O)C1C)OCO3` (configuration not stated), the TGI in assay [1] is 28.5 µM; in assay [2], 23.1 µM; in assay [3] it was more than 53.2 µM; in assay [4] it was more than 66.7 µM; in assay [5], 31.4 µM; in assay [6] it was 15.4 µM. Further, the TGI in assay [7] is 27 µM.
As for `O=S1(=O)OCCCOS(=O)(=O)C1(Br)Br`, the TGI in assay [1], in assay [2], in assay [3], in assay [4], in assay [5] and in assay [6] was more than 100 µM in each case. Further, the TGI in assay [7] is more than 100 µM.
Turning to `CCC(=O)N1C(=O)C(CC)(CC)C(=O)N1C(=O)CC`, the TGI in assay [1], in assay [2], in assay [3], in assay [4], in assay [5] and in assay [6] was more than 100 µM throughout. The compound further came in with a TGI in assay [7] of more than 100 µM.
`O=C(CC(c1ccccc1)C(C(=O)c1ccncc1)C(CC(=O)c1ccncc1)c1ccccc1)c1ccncc1` (configuration not stated): the TGI is more than 100 µM in assay [1]; more than 100 µM in assay [2]; more than 100 µM in assay [3]; more than 100 µM in assay [4]; more than 100 µM in assay [5]; 70.3 µM in assay [6]. For the same compound, in assay [7], the TGI is more than 100 µM.
As for `CC(C)=CCC[C@@H](C)C1=CC(=O)C(C)=C(O)C1=O`, the TGI in assay [1] is 24.1 µM; in assay [2], 14 µM; in assay [3], 8.08 µM; in assay [4] it was 15.7 µM; in assay [5], 29.4 µM; in assay [6], 27.3 µM. In assay [7], this compound had a TGI of 10.5 µM.
Take `OCC1OC(c2ccccc2)CC1O` (configuration not stated): the TGI in assay [1], in assay [2], in assay [3], in assay [4], in assay [5] and in assay [6] was more than 100 µM in each case. In assay [7], this compound yielded a TGI of more than 100 µM.
As for `CO[C@]12CC(=O)C3(C(C[C@H]4CC5CC[C@H]6C[C@@H](OC(C)=O)CC[C@]6(OC(C)=O)C5C[C@@]43C)C1)C1C[C@H]3[C@@H]4CC[C@H]5C[C@@H](OC(C)=O)CC[C@]5(OC(C)=O)[C@H]4CC[C@]3(C)C12` (some centres not stated), the TGI in assay [1], in assay [2], in assay [3], in assay [4], in assay [5] and in assay [6] was more than 100 µM each time. The compound also returned a TGI in assay [7] of more than 100 µM.
As to `Cc1ccc2c(=O)cc(Cc3csc4ccccc34)[nH]c2n1`, the TGI in assay [1] was more than 100 µM; in assay [2], 79.6 µM; in assay [3], 55.8 µM; in assay [4], more than 100 µM; in assay [5], more than 100 µM; in assay [6], 93.8 µM. In assay [7], this compound had a TGI of more than 100 µM.
With `O=C(CSCC(=O)N/N=C\c1ccccc1F)N/N=C\c1ccccc1F`, the TGI in assay [1], in assay [2], in assay [3], in assay [4], in assay [5] and in assay [6] was more than 100 µM in each case. The compound also came in with a TGI in assay [7] of more than 100 µM.
Turning to `COC1=CC(=O)c2nc3ccccc3c3ccnc1c23`, the TGI in assay [1] is 2.95 µM; in assay [2] it was 46.1 µM; in assay [3], 13.5 µM; in assay [4], 14.4 µM; in assay [5] it was more than 64.9 µM; in assay [6] it was 19.7 µM. The TGI in assay [7] is more than 53.8 µM.
